What all share (type): functional, cell-based
Experiment [1] deals with T1, Muscarinic acetylcholine receptor M1 (Rattus norvegicus) (UniProt P08482).
T1 sequence (whole entry): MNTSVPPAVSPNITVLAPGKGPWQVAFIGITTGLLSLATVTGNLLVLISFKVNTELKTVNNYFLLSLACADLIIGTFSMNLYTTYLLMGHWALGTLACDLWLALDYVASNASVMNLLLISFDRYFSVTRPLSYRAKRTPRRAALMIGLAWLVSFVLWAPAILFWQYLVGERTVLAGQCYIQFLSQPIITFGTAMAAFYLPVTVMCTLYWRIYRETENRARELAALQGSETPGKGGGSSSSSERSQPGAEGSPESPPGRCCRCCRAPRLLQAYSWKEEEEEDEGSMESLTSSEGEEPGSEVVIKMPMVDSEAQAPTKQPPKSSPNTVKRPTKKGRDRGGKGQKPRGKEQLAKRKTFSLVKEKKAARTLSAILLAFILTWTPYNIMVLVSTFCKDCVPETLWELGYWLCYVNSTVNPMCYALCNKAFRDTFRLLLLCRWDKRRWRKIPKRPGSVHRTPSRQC
In words: Percent increase in Arachidonic acid (AA) release using CHO cells, transfected with rat muscarinic m1 acetylcholine receptor (AChR).

Experiment [2] addresses Muscarinic acetylcholine receptor M3 (Homo sapiens) (UniProt P20309). In words: Percent increase in phosphoinositides (PI) hydrolysis using CHO cells, stably transfected with human muscarinic m3 acetylcholine receptor (AChR).
The target of experiment [3] is T2, Muscarinic acetylcholine receptor M1 (Homo sapiens) (UniProt P11229).
T2 sequence (whole entry): T1 sequence (whole entry) with V5A, S254T, S309P, K320R, G337A, V413I
Put plainly: Percent increase in forskolin-stimulated cAMP accumulation using CHO cells, stably transfected with human muscarinic m1 acetylcholine receptor (AChR).

Experiment [4] has as its target T2, Muscarinic acetylcholine receptor M1 (Homo sapiens). In words: Percent increase in intracellular calcium ions concentration ([Ca2+]i) using CHO cells, stably transfected with human muscarinic m1 acetylcholine receptor (AChR).
Experiment [5] shares this target. In words: Percent increase in phosphoinositides (PI) hydrolysis using chinese hamster ovary (CHO) cells, stably transfected with human muscarinic m1 acetylcholine receptor (AChR).
The target in experiment [6] is T3, Muscarinic acetylcholine receptor M2 (Homo sapiens) (UniProt P08172).
T3 sequence (whole entry): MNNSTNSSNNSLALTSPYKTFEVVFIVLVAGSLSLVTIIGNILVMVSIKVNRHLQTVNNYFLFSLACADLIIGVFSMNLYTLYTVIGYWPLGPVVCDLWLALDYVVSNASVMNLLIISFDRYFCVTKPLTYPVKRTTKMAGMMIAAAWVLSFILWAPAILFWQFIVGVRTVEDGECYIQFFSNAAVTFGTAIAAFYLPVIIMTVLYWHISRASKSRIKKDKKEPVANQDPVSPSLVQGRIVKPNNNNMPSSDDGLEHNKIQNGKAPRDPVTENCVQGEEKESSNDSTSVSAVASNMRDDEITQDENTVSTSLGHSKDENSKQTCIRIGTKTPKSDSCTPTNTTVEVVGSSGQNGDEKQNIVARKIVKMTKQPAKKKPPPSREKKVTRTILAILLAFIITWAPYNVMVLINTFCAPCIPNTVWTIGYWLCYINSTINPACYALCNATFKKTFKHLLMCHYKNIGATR
In words: Percent increase in forskolin-stimulated cAMP accumulation using CHO cells, transfected with human muscarinic m2 acetylcholine receptor (AChR). On the technique in general: Changes in cAMP serve as a functional read-out for many G protein-coupled receptors.

The target in experiment [7] is T3, Muscarinic acetylcholine receptor M2 (Homo sapiens). In words: Percent increase in intracellular calcium ions concentration ([Ca2+]i) using CHO cells, stably transfected with human muscarinic m2 acetylcholine receptor (AChR).
Experiment [8] addresses Muscarinic acetylcholine receptor M3 (Rattus norvegicus) (UniProt P08483). Put plainly: Percent increase in Arachidonic acid (AA) release using CHO cells, stably transfected with rat muscarinic m3 acetylcholine receptor (AChR).
Experiment [9] addresses T4, Muscarinic acetylcholine receptor M4 (Homo sapiens) (UniProt P08173).
T4 sequence (whole entry): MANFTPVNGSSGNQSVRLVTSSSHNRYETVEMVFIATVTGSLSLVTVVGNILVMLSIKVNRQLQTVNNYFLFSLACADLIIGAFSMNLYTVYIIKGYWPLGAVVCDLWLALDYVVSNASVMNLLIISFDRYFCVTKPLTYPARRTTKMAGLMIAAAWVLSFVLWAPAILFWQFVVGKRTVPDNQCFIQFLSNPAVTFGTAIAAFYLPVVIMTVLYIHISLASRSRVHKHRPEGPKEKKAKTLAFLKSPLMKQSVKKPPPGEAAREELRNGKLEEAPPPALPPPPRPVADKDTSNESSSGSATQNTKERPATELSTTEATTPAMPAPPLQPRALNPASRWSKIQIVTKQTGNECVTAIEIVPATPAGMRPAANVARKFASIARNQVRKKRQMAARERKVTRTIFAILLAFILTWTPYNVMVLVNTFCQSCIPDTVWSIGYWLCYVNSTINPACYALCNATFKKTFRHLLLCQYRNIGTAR
Put plainly: Percent increase in intracellular calcium ion concentration ([Ca2+]i) using CHO cells, stably transfected with human muscarinic m4 acetylcholine receptor (AChR). On the technique in general: Calcium flux is commonly read through the fluorescence of an indicator in the cells.

The target of experiment [10] is T5, Muscarinic acetylcholine receptor M5 (Homo sapiens) (UniProt P08912).
T5 sequence (whole entry): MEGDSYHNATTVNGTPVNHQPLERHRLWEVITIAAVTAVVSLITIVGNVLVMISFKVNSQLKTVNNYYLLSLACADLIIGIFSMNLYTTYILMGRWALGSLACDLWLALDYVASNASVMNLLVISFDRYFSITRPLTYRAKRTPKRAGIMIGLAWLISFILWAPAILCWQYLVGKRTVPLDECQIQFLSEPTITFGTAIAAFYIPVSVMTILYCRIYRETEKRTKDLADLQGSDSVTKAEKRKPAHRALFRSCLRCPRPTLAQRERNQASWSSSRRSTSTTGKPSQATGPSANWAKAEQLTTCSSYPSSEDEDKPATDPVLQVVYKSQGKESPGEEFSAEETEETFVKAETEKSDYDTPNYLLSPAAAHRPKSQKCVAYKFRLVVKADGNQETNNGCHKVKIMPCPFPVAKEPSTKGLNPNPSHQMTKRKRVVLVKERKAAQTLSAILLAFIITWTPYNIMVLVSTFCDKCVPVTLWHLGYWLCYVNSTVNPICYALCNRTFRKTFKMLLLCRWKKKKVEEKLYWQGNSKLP
Put plainly: Percent increase in intracellular calcium ions concentration ([Ca2+]i) using CHO cells, stably transfected with human muscarinic m5 acetylcholine receptor (AChR).

In experiment [11] the target is T5, Muscarinic acetylcholine receptor M5 (Homo sapiens). In words: Percent increase in phosphoinositides (PI) hydrolysis using CHO cells, stably transfected with human muscarinic m5 acetylcholine receptor (AChR).
Experiment [12] has as its target Muscarinic acetylcholine receptor M3 (Homo sapiens) (UniProt P20309). Put plainly: Percent increase in forskolin-stimulated cAMP accumulation using CHO cells, stably transfected with human muscarinic m3 acetylcholine receptor (AChR).
Experiment [13] has the same target. Put plainly: Percent increase in intracellular calcium ion concentration ([Ca2+]i) using CHO cells, stably transfected with human muscarinic m3 acetylcholine receptor (AChR).
The target of experiment [14] is T2, Muscarinic acetylcholine receptor M1 (Homo sapiens). In words: Percent increase in Arachidonic acid (AA) release using CHO cells, transfected with human muscarinic m1 acetylcholine receptor (AChR).
Experiment [15] concerns the target Muscarinic acetylcholine receptor M3 (Homo sapiens) (UniProt P20309). Put plainly: Percent increase in Arachidonic acid (AA) release using CHO cells, stably transfected with human muscarinic m3 acetylcholine receptor (AChR).
In experiment [16] the target is T5, Muscarinic acetylcholine receptor M5 (Homo sapiens). In words: Percent increase in Arachidonic acid (AA) release using CHO cells, stably transfected with human muscarinic m5 acetylcholine receptor (AChR).

This is an account of results in ChEMBL document CHEMBL1126234, “Rigid analogs of acetylcholine can be m1-selective agonists: implications for a rational treatment strategy in Alzheimer's disease” (Bioorg Med Chem Lett, 1992).

Substitutions are numbered along the chain they refer to.

Sequence of Muscarinic acetylcholine receptor M3 (Homo sapiens) (P20309 whole entry, looked up): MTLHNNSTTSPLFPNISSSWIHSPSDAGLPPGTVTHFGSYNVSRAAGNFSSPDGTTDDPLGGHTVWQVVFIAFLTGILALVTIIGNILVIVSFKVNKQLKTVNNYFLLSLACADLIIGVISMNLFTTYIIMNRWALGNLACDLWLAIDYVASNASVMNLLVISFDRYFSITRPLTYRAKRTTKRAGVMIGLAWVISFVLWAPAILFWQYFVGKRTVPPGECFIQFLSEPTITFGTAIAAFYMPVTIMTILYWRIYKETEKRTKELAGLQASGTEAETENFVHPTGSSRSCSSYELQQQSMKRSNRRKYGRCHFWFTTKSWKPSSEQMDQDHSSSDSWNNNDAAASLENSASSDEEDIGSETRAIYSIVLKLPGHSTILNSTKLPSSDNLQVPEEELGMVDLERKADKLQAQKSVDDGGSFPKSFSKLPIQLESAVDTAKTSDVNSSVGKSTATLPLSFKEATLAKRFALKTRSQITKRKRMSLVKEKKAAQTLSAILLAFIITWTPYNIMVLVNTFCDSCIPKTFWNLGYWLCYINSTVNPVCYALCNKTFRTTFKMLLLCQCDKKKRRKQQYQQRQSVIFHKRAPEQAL
Sequence of Muscarinic acetylcholine receptor M3 (Rattus norvegicus) (P08483 whole entry, looked up): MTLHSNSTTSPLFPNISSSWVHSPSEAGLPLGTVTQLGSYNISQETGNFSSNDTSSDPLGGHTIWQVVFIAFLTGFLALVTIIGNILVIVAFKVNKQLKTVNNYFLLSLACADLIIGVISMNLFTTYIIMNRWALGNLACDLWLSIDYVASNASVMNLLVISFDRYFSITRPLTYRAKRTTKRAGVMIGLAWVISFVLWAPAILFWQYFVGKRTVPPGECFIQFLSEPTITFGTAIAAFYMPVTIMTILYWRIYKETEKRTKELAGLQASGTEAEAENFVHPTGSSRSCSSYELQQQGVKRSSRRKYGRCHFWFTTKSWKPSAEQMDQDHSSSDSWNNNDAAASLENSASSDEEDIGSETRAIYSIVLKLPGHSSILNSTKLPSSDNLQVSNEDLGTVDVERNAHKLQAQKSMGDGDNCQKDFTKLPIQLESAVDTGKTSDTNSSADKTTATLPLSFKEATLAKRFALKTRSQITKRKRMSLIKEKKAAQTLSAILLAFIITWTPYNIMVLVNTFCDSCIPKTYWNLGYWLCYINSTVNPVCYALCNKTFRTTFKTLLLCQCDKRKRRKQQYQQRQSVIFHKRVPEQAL

Consider `CC1=NCC2(CCN(C)CC2)O1`, for which the Increase in experiment [1] was found to be 90%; in [2] it was 76%; in experiment [3], 6%; in experiment [4], 60%; in experiment [5] it was 85%; in [6], 74%. Moreover, the Increase was determined as 12% in [7]; 27% in [8]; 10% in experiment [9]; 78% in experiment [10]; 28% in experiment [11]; 10% in [12]. For the same molecule, the Increase in experiment [13] was 130%.
As for `C[N+](C)(C)CC#CCOC(=O)Nc1cccc(Cl)c1`, the Increase in [2] turned out to be 7%; in experiment [14], 90%; in experiment [3], 7%; in [5], 89%; in [6] it was 9.5%; in experiment [15], 13%. Moreover, the Increase in experiment [16] came out at 34%; in [11], 24%; in experiment [12] it was 7%.
As to `CC1=NC2(CCN(C)CC2)CO1`, the Increase was found to be 61% in [1]; 84% in [2]; 3% in experiment [14]; 85% in experiment [4]; 102% in [5]; 70% in experiment [6]. The Increase in experiment [7] is 9%; in experiment [8], 36%; in experiment [9], 10%; in [10], 80%; in [11], 79%; in experiment [12] it was 4%. Moreover, the Increase in [13] was 132%.
On to `C[C@@H]1OC2(CS1)CN1CCC2CC1` (some centres undefined), for which the Increase in [2] is 10%; in experiment [14] it was 68%; in [3], 1%; in [4] it was 79%; in experiment [5], 43%; in experiment [6], 60%. Also, the Increase in [7] amounted to 17%; in experiment [15], 11%; in [9] it was 3%; in experiment [16], 4%; in experiment [10], 32%; in [11], 4%. For the same molecule, the Increase amounted to 0.8% in [12] and 86% in [13].
